Test results taken from publication PMC7026589, “Sensitive CometChip assay for screening potentially carcinogenic DNA adducts by trapping DNA repair intermediates” (Nucleic Acids Research, 2019).
Read-outs that look alike come from different tables or passages of the source.

Columns and labels:
CYP1A2 [1] = biological target: T1, CYP1A2 (Homo sapiens, UniProt P05177); type: cell-based; design: endogenous in cells; conditions: HepaRG; B[a]P 24 h
Method: (§1) The CYP450-Glo™ CYP3A4 assay with luciferin-IPA (V9001) and the CYP450-Glo™ CYP1A2 assay with luciferin-1A2 (V8421) were purchased from Promega, Madison, WI. The activity levels of CYP3A4 and CYP1A2 in cells were measured according to the manufacturer's protocol for non-lytic cell-based assays. Luminescent signals were recorded using a SpectraMax M2e microplate reader (Molecular Devices, Sunnyvale, CA, USA). Control wells with no cells were included to obtain background luminescence. The net signal for each sample was obtained by subtracting the background luminescence value.
(§2) CYP3A4 or CYP1A2 activity per cell can be obtained by normalizing CYP450-Glo™ values with cell numbers. After a sample was analyzed for CYP3A4 or CYP1A2 activity, the CTG® assay was performed to obtain an estimate of the number of viable cells in the sample. The result from CYP450-Glo™ was then divided by the CTG® value to obtain the average CYP3A4 or CYP1A2 activity per cell.

HepaRG™ cells = tested on: HepaRG™ cells
From the text: Cryopreserved HepaRG™ (HPRGC10), a terminally differentiated hepatic cell line, was purchased from ThermoFisher Scientific (Waltham, MA). HepaRG™ was thawed and cultured according to manufacturer's instructions. Briefly, the general purpose working medium was WEM supplemented with 1X GlutaMAX™ and 1X HepaRG™ Thaw, Plate, & General Purpose Medium Supplement. The metabolism working medium was WEM supplemented with 1X GlutaMAX™ and HepaRG™ Maintenance/Metabolism Medium Supplement. HepaRG™ cells were thawed in the general purpose working medium and plated in a 96-well plate coated with collagen I at 100 000 cells/well. One day after plating, the general purpose working medium was changed to the metabolism working medium. The metabolism working medium was renewed on day 4 and day 6 after plating. On day 7, the cells were treated in the metabolism working medium.
To load cells into microwells, ∼2000–200 000 cells in suspension were placed into each macrowell, and the chip was incubated at 37°C in the presence of 5% CO2 for 15 min. Cell were loaded into microwells by gravity, and excess cells were then washed off with PBS by shear force. The chip was covered with a layer of overlay agarose (1% w/v low-melting point agarose solution in PBS, kept molten at 43°C until use). For complete gelation of the overlay agarose, the chip was kept at room temperature for two minutes followed by 2 min at 4°C.
The alkaline comet assay was performed as previously ([15],[79]). Sodium chloride (NaCl, 7581), disodium EDTA (Na2EDTA, 4931), and sodium hydroxide pellets (NaOH, 7708) were purchased from VWR, Radnor, PA. Trizma® base (T1503), Trizma® HCl (T5941) and Triton X-100 (X-100) were obtained from MilliporeSigma, St. Louis, MO. 10 000× SYBR™ Gold nucleic acid gel stain was obtained from ThermoFisher Scientific, Waltham, MA.
The alkaline lysis buffer (pH ∼ 10) was a solution of 2.5 M NaCl, 100 mM Na2EDTA, 10 mM Trizma® base, and 1% (v/v) Triton X-100 dissolved in deionized H2O (dI H2O). […] The neutralization buffer (pH ∼ 7.5) was prepared by dissolving Trizma® HCl in distilled H2O to a final concentration of 0.4 M.
(§3) Cells encapsulated in CometChip were lysed in the alkaline lysis buffer overnight at 4°C. The nuclei were unwound in the alkaline unwinding buffer for 40 min at 4°C, and the DNA was electrophoresed in the same buffer at the same temperature for 30 min at 1 V/cm and ∼300 mA. The CometChip was then washed three times in neutralization buffer by submerging for 5 min each time.
(§4) The DNA on CometChip was stained for 15 min at room temperature with 1× of SYBR™ Gold diluted in PBS, protected from light. Fluorescent images of the comets were captured at 40× magnification using an epifluorescence microscope (Nikon Eclipse 80i, Nikon Instruments, Inc., Melville, NY, USA) with a 480 nm excitation filter. Image acquisition was achieved by automatic scanning using a motorized XY stage. Comet images were automatically analyzed using Guicometanalyzer, a custom software developed in MATLAB (The MathWorks Inc., Natick, MA, USA) as previously described ([15]). For each condition, 100 comets or more were analysed. Outputs from Guicometanalyzer were processed and imported to a spreadsheet (Microsoft Excel, Microsoft Office Suite 2016) using Comet2Excel, an in-house software developed in Python (Python Software Foundation, Python version 2.7.10). Software is freely available upon request.
For this experiment, the comets were analysed using Trevigen® Comet Analysis Software.
A vehicle control condition was included by diluting DMSO in cell culture medium to get a final concentration of 0.5%. Cells were incubated with the test compound for 24 h at 37°C in the presence of 5% CO2.
HepaRG™ were incubated with the test compound for 24 h at 37°C in the presence of 5% CO2. A vehicle control (1% DMSO) was included.

Xpa−/− mouse hepatocytes = conditions: presence of HU/AraC, 24 h, compared with WT
Method: as §3
as §4, with “Outputs from Guicometanalyzer were processed and imported to a spreadsheet (Microsoft Excel, Microsoft Office Suite 2016) using Comet2Excel, an in-house software developed in Python (Python Software Foundation, Python version 2.7.10). Software is freely available upon request.” left out
(§5) Primary mouse hepatocytes were obtained from 10 to 14 weeks old C57Bl6 mice using a standard two-step collagenase liver perfusion procedure with minor changes ([80],[81]). […] Cell viability and cell number were analyzed using an automated Trypan Blue exclusion system [Vi-CELL™ cell counter (Beckman Coulter Life Sciences, Brea, CA)]. […]

[2] = tested on: primary mouse hepatocytes; conditions: WT primary mouse hepatocytes; absence of HU/AraC; 24 h
Method: as §3
as §4, with “Outputs from Guicometanalyzer were processed and imported to a spreadsheet (Microsoft Excel, Microsoft Office Suite 2016) using Comet2Excel, an in-house software developed in Python (Python Software Foundation, Python version 2.7.10). Software is freely available upon request.” left out
as §5

CYP1A2 [3] = biological target: T1, CYP1A2; type: cell-based; design: endogenous in cells; host or cells: HepG2; conditions: HepG2; B[a]P 24 h
Method: as §1, §2

T1 sequence (P05177 whole entry): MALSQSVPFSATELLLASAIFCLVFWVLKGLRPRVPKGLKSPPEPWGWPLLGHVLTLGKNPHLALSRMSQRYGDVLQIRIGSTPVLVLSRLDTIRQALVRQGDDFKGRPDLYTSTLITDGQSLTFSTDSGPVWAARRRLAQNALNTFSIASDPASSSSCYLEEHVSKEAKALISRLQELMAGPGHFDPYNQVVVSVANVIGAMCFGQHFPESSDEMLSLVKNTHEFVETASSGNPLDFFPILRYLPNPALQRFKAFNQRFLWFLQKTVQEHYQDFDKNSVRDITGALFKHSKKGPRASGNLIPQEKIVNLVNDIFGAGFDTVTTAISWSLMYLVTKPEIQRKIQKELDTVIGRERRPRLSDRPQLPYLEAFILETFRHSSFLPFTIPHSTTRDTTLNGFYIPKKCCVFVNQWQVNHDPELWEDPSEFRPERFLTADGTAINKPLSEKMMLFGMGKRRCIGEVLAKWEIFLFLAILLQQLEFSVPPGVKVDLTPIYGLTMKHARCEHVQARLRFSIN

c1ccc2c(c1)cc1ccc3cccc4ccc2c1c34 [B[a]P, Benzo[a]pyrene]
CYP1A2 activity level (induction) (CYP1A2 [1]): induced in a dose-dependent manner
Genotoxicity Alkaline CometChip HepaRG (+ HU + AraC) +/− (HepaRG™ cells): +
Genotoxicity Alkaline CometChip HepaRG +/− (HepaRG™ cells): −
SSBs (Xpa−/− mouse hepatocytes): not significantly
SSBs [2]: significant, but relatively small, increase in SSBs
CYP1A2 activity level (induction) (CYP1A2 [3]): induced in a dose-dependent manner
